From US20230310813A1, “DIMERIC NAPHTHALIMIDE COATING” (ALUCENT BIOMEDICAL, INC., priority 2020, published 2023)
Several values for one entry are separate records, joined by “and”; a condition that tells them apart may be missing. Equal values may be shown once. Entries after “also recorded” stand apart in the source; their conditions may differ.

Columns and labels:
Format in all cases: physicochemical
[1] = Solubility of Compound of Formula (I) in solvent systems
Procedure: (§1) The non-limiting exemplary and comparative solvent systems listed in Table 1 were prepared by combining the components of the solvent system at the indicated concentrations. The resulting mixture was then mixed at room temperature until a colorless, clear mixture was obtained. Compound of Formula (I) was then added in the indicated amount and the resulting mixture was mixed at room temperature until a yellow/orange translucent mixture was obtained.
(§2) The solubility and stability of solvent systems were determined.

[2] = Room temperature stability of coated balloons; settings: for amount of main impurity by LC / formation of impurities over time: 25° C., 60% RH, 0-24 months
Procedure: Angioplasty balloons coated with the Compound of Formula (I) (“10-8-10 compound”) were tested for their stability at 25° C. over a period of 0, 3, 6, and 12 months. The products described in Table 4 were placed in storage at 25° C.
Samples of each article were taken after 0, 3, 6, 12, 18 and 24 months of storage at 25° C., 60% RH.

[3] = 10-8-10 stability over 8 hours in solvent systems
Procedure: The purity of a composition was analyzed by UPLC or HPLC.
as §1

[4] = Stability of coated balloon in reduced oxygen and reduced moisture packaging; settings: coated balloon stored in reduced oxygen and reduced moisture packaging
Procedure: Packaged coated balloons were prepared as follows. A coated balloon from Example 3 was placed in a foil pouch. The concentration of oxygen within the foil pouch was reduced by purging with nitrogen. A desiccant was added to the foil pouch before sealing the oxygen-purged foil pouch comprising the coated balloon and the desiccant.
At various time points after packaging, a coated balloon was taken out of its packaging. A sample of the coating on the coated balloon was removed and analyzed.

[5] = Stability of coated balloon coating after sterilization (UPLC/HPLC)
Procedure: A solvent system was prepared by combining ethanol and water and acetic acid in a volume ratio of 89.5:10:0.5. The resulting mixture was then mixed at room temperature until a colorless, clear mixture was obtained. Compound of Formula (I) was then added in the indicated amount and the resulting mixture was mixed at room temperature until a yellow/orange translucent mixture was obtained. This mixture was applied to a 5 mm×60 mm balloon by a pipetting method. The coated balloon was then dried to evaporate the solvent. A coated balloon with a coating thickness of 10 μg/mm^2 was obtained. The calculated amount of Compound of Formula (I) on the coated balloon was 7759 μg.
Coated balloons from Example 3 were sterilized either by ethylene oxide sterilization (EO), gamma sterilization (Gamma) or electron beam sterilization (E-Beam). A group of control balloons was left untreated (Control). After sterilization, a sample of the coating on each of the coated balloons was removed and analyzed.

[6] = Storage stability in solvent systems
Procedure: as §2

[7] = coated balloon after electron beam sterilization (E-Beam)
[8] = coated balloon after ethylene oxide sterilization (EO)
[9] = coated balloon after gamma sterilization (Gamma)
[10] = coated balloon, Control (not sterilized)

Solubility >2% w/w ([1]; Table 1, solvent system 89.5% Ethanol/10% water/0.5% acetic acid): ✓
Solubility >2% w/w ([1]; Table 1, solvent system 99% Ethanol/1% Acetone): ✓
Solubility >2% w/w ([1]; Table 1, solvent system Ethanol/Acetone/BHT): ✓
Solubility >2% w/w ([1]; Table 1, solvent system Ethanol/MEK): ✓
Solubility >2% w/w ([1]; Table 2, EtOH/Acetic Acid (99.5:0.5)): ✓
Solubility >2% w/w ([1]; Table 2, EtOH/Water (90:10)): ✓
Solubility >2% w/w ([1]; Table 2, EtOH/Water (98:2)): ✓
Solubility >2% w/w ([1]; Table 2, EtOH/Water/Acetic Acid (89.5:10:0.5)): ✓
Solubility >2% w/w ([1]; Table 2, EtOH/Water/Acetic Acid (99.4:0.5:0.1)): ✓
degradation ([2]; coated article stored at room temperature): degrades appreciably
degradation rate over time at room temperature ([2]; coating further comprising at least one antioxidant): reduced
amount of main impurity by LC / formation of impurities over time ([2]; coating with BHT vs coating of only Compound of Formula (I)): lower amounts; also recorded: reduction
amount of main impurity by LC / formation of impurities over time ([2]; coating with tromethamine vs coating of only Compound of Formula (I)): lower amounts; also recorded: reduction
10-8-10 stability over 8 hours ([3]; solvent system 89.5% Ethanol/10% water/0.5% acetic acid): ✓
10-8-10 stability over 8 hours ([3]; solvent system 99.5% Ethanol/0.5% acetic acid): ✓
10-8-10 stability over 8 hours ([3]; solvent system Ethanol/IPA): ✓
degradation ([3]; solvent system comprising ethanol, water, and acetic acid): does not degrade appreciably
increase in impurity concentration [4]: minimal
degradation ([5]; coated article subjected to ethylene oxide sterilization): degrades appreciably
Compound of Formula (I) (HPLC area-%) [5, 10]: 98.33 HPLC area-% and 98.32 HPLC area-%
Total impurities (HPLC area-%) [5, 10]: 1.67 HPLC area-% and 1.68 HPLC area-%
Storage stability ([6]; EtOH/Water (90:10)): ✓
Storage stability ([6]; EtOH/Water/Acetic Acid (89.5:10:0.5)): ✓
solubility and stability ([6]; ethanol, water, acetic acid (89.5:10:0.5) solvent system): exhibited both solubility and stability
solubility and stability ([6]; ethanol/water (90:10) solvent system): exhibited both solubility and stability
SMILES: NCCOCCOCCNc1ccc2c3c(cccc13)C(=O)N(CCOCCOCCN1C(=O)c3cccc4c(NCCOCCOCCN)ccc(c34)C1=O)C2=O [Compound of Formula (I), 2,2′-((ethane-1,2-diylbis(oxy))bis(ethane-2,1-diyl))bis(6-((2-(2-(2-aminoethoxy)ethoxy)ethyl)amino)-1H-benzo[de]isoquinoline-1,3(2H)-dione)]
change in impurity concentration ([5]; coated article after radiation sterilization (gamma irradiation, electron beam)): No change or minimal increase; also recorded: minimal increase
Compound of Formula (I) (HPLC area-%) [5, 7]: 98.22 HPLC area-% and 98.33 HPLC area-% and 98.37 HPLC area-%
Total impurities (HPLC area-%) [5, 7]: 1.78 HPLC area-% and 1.67 HPLC area-% and 1.63 HPLC area-%
Compound of Formula (I) (HPLC area-%) [5, 8]: 94.75 HPLC area-% and 94.26 HPLC area-% and 94.35 HPLC area-%
Total impurities (HPLC area-%) [5, 8]: 5.25 HPLC area-% and 5.74 HPLC area-% and 5.65 HPLC area-%
Compound of Formula (I) (HPLC area-%) [5, 9]: 98.32 HPLC area-% and 98.37 HPLC area-% and 98.28 HPLC area-%
Total impurities (HPLC area-%) [5, 9]: 1.68 HPLC area-% and 1.63 HPLC area-% and 1.72 HPLC area-%
